Tests used:
[1] = tested on: Smo-mEos2 localization to the primary cilium in NIH3T3 cells; experiment: Smo-mEos2 ciliary localization in NIH3T3/Smo-mEos2 cells (immunofluorescence); assay type: cell-based; conditions: Hh ligands not present
Procedure: NIH3T3/Smo‐mEos2 cells (Kim et al, 2014) (a gift from P. Beachy, SUSM, Stanford, CA, USA) were grown to confluence on coverslips in DMEM (Thermo Fisher Scientific, #31966021) supplemented with 10% FBS (Thermo Fisher Scientific, #10270106), 1% penicillin/streptomycin (Thermo Fisher Scientific, #15140122) and 1% MEM non‐essential amino acids (Thermo Fisher Scientific, #11140050) at 37°C. For SAG, 3‐BP and 2‐DG treatment, cells were then shifted to serum‐deprived medium containing 0.5% FBS instead of 10% FBS and incubated for 24 h with 100 nM SAG (Merck, #566660), 25 mM of 2‐DG (ROTH, #CN96.3) or 15 μM 3‐BP (Sigma‐Aldrich, #16490‐10G), respectively, or without any compound at 37°C. […]
(§1) Only ring glands and wing discs that were processed in parallel, imaged using the same microscope settings, and properly mounted were used for quantifications. For quantification of immunohistochemical staining of CD8::GFP in ring glands, the mean pixel intensity of two regions of interest of 25 × 25 μm per ring gland was determined using ROI manager, and the average of these was used for the statistical analysis. For quantification of compartment size, wing disc folds served as morphological landmarks to outline the region of the wing pouch and the D/V boundary. The area of dorsal and ventral compartment was then determined using ROI manager. […] The mean grey value was measured using ROI manager. […]

[2] = tested on: PAC-NAE uptake into wing discs; experiment: Lipophorin-mediated PAC-NAE uptake in wing discs; assay type: cell-based, Drosophila
Procedure: The isolation procedure of Lipophorin (Lpp) particles was adapted from Panakova et al (2005). Briefly, 10 ml feeding third‐instar larvae were first washed with water and then with TNE buffer (100 mM Tris–HCl pH 7.5, 150 mM NaCl, 0.2 mM EGTA, cOmplete™ protease inhibitor cocktail (Roche, #000000011697498001)). All following steps were conducted at 4 °C (unless stated otherwise). Larvae were homogenized in TNE buffer in a tissue grinder with a loose pestle, and the homogenate was centrifuged for 10 min at 1,000 × g and afterwards for 3 h at 142,000 × g. The resulting supernatant (10 ml) was mixed with 40 μl 10 mM PAC‐NAE (EtOH solution) and sonicated for 5 min. […]
as §1, with “A/P boundary” for “mean grey value”, “determined according to anti‐Ci155 or anti‐Ptc co‐immunostaining.” for “measured using ROI manager.”

[3] = tested on: ATP levels in ubi-AT1.03NL wing discs; experiment: Measurement of ATP using FRET-based ATP sensor AT1.03NL in explanted wing discs; assay type: cell-based, Drosophila; conditions: explanted wing discs treated with antimycin A for 2 h
Procedure: Wing discs from up‐crawling third‐instar larvae were dissected within 10 min in Grace's medium supplemented with 5% FBS and 20 nM 20‐hydroxyecdysone (Dye et al, 2017). Dissected wing discs were mounted with their basal side up on glass‐bottom dishes (MatTek Corporation, #P35G‐1.0‐20‐C) with a double‐sided tape spacer and immobilized with a Whatman™ Cyclopore™ track‐etched polycarbonate membrane filter (GE Healthcare Life Sciences, #7062‐2513). Imaging of ubi‐AT1.03NL wing discs was performed on an Olympus IX81 microscope equipped with Yokogawa spinning disk (CSU‐W1, Yokogawa) and Ixon Ultra EMCCD camera (Andor). The sensitized emission method was used to measure FRET. Wing discs were excited with a 445 nm laser twice in a sequential manner. Upon first excitation, emission of mse‐CFP was collected using an HQ 480/40 bandpass filter. Upon second excitation, emission of cpVenus‐FRET was collected using an HQ 542/27 filter. The emission of cpVenus‐FRET has contributions from the energy transfer from mse‐CFP and bleed‐through of mse‐CFP into the HQ 542/27 filter. […]
A custom‐written MATLAB (MathWorks) script was used to estimate the FRET efficiency from the fluorescence images. […]
The FRET efficiency (η) was calculated as, η=IFRET/ID+IFRET […]

[4] = tested on: plasma membrane potential of wing discs; experiment: Membrane potential assay with DiBAC4(3) in wing discs; assay type: cell-based, Drosophila; conditions: wing discs incubated with 1 μM gramicidin A for 30 min at 29°C
Procedure: To investigate the plasma membrane potential, we used the membrane potential‐sensitive dye DiBAC4(3) (Thermo Fisher Scientific, #B438). Wing discs from up‐crawling third‐instar larvae were dissected in Grace's medium supplemented with 5% FBS and 20 nM 20‐hydroxyecdysone (full medium) (Dye et al, 2017), and incubated with 500 nM DiBAC4(3) in full medium for 15 min at 29°C. After washing twice with full medium, wing discs were mounted and imaged immediately. A higher fluorescence intensity of DiBAC4(3) indicates depolarization of the plasma membrane. […]
Only ring glands and wing discs that were processed in parallel, imaged using the same microscope settings, and properly mounted were used for quantifications. For quantification of immunohistochemical staining of CD8::GFP in ring glands, the mean pixel intensity of two regions of interest of 25 × 25 μm per ring gland was determined using ROI manager, and the average of these was used for the statistical analysis. For quantification of compartment size, wing disc folds served as morphological landmarks to outline the region of the wing pouch and the D/V boundary. The area of dorsal and ventral compartment was then determined using ROI manager. […] The A/P boundary was determined according to anti‐Ci155 or anti‐Ptc co‐immunostaining. […] The mean grey value was measured using ROI manager. […] The integrated density was measured using ROI manager. […]

Compound: O=CC[C@@H](O)[C@H](O)[C@H](O)CO [2-DG, 2‐deoxyglucose]
- Smo-mEos2 accumulation in the primary cilium [1]: accumulates in the primary cilium

Compound: O=C(O)C(=O)CBr [3-BP, 3‐bromopyruvate]
- Smo-mEos2 accumulation in the primary cilium [1]: accumulates in the primary cilium

Compound: C#CCCCC1(CCCCCCCCC(=O)NCCO)N=N1 [PAC-NAE]
- PAC-NAE accumulation in wing disc tissue ([2]; knock-down of either ecd or Gapdh in the dorsal compartment, 1.5 μM PAC-NAE labelled Lpp particles): autonomously reduced

Compound: CCCCCC[C@H]1C(=O)O[C@H](C)[C@H](NC(=O)c2cccc(NC=O)c2O)C(=O)O[C@@H](C)[C@@H]1OC(=O)CC(C)C [antimycin A]
- FRET signal of ubi-AT1.03NL (cellular ATP levels) [3]: strongly reduced

Compound: gramicidin A
- Plasma membrane potential (DiBAC4(3) signal intensity) [4]: dissipate the plasma membrane potential
- Uptake of PAC-NAE ([2]; wing discs incubated with 1 μM gramicidin A, compared to control discs): strongly reduces
